Results taken from ChEMBL document CHEMBL1133741, “New anilinophthalazines as potent and orally well absorbed inhibitors of the VEGF receptor tyrosine kinases useful as antagonists of tumor-driven angiogenesis” (J Med Chem, 2000).

How the values were obtained:
[1] = target: Vascular endothelial growth factor receptor 1 (Homo sapiens, UniProt P17948); experiment: Inhibitory activity against Flt-kinase
[2] = target: T1, Vascular endothelial growth factor receptor 2 (Homo sapiens, UniProt P35968); experiment: Inhibitory activity against kinase domain containing receptor (KDR/VEGFR2)
T1 sequence (P35968 whole entry, the tested form may be a part): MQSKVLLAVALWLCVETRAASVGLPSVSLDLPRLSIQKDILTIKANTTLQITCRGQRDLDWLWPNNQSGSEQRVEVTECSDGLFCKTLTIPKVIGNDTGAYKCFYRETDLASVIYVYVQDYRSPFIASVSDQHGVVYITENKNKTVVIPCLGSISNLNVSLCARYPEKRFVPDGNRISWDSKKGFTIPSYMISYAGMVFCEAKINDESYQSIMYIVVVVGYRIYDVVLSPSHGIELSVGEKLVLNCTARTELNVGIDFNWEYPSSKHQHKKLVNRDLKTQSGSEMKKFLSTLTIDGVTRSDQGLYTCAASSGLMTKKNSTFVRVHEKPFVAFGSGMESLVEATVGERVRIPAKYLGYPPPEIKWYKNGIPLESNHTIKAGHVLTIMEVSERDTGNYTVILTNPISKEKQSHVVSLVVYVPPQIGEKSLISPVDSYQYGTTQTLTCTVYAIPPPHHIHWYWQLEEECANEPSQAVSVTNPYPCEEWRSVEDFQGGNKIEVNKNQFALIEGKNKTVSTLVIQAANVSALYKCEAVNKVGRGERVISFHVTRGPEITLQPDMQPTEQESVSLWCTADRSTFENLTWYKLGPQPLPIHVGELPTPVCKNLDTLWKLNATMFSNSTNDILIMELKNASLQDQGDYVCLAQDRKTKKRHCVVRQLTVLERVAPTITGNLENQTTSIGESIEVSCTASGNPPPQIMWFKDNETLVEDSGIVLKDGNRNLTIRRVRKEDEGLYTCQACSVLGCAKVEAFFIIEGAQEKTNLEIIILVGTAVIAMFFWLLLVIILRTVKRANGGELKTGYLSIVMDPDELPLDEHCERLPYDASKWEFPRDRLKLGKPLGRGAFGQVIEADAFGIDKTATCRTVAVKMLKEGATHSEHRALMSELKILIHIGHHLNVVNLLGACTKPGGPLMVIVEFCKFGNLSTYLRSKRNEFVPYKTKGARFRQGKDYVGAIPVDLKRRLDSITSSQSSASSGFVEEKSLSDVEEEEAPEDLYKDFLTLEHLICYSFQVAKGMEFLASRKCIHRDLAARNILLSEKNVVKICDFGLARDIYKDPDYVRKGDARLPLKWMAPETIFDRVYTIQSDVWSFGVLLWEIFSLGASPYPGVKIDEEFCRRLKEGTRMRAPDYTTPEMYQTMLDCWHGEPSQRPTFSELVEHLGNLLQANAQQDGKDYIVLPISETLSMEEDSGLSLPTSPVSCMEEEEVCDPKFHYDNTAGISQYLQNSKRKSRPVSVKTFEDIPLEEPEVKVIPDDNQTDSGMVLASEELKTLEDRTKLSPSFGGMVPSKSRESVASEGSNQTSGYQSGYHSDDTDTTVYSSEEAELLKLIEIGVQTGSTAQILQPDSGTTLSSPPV

[3] = (§1) The maximum concentration observed (Cmax) in the blood sample at indicated time point (tmax) at a dose 50 mg/Kg administered orally in mice.; type: ADME, organism-based; set-up: dose 50 mg/Kg, route oral; details: mouse, in vivo, po
[4] = The maximum time reported (tmax) at an oral dose of 50 mg/Kg in mice; type: ADME, organism-based; details: mouse, in vivo
[5] = target: Platelet-derived growth factor receptor beta (Homo sapiens, UniProt P09619); experiment: Inhibition of PDGF- beta receptor kinase
Sequence of Platelet-derived growth factor receptor beta (P09619 whole entry): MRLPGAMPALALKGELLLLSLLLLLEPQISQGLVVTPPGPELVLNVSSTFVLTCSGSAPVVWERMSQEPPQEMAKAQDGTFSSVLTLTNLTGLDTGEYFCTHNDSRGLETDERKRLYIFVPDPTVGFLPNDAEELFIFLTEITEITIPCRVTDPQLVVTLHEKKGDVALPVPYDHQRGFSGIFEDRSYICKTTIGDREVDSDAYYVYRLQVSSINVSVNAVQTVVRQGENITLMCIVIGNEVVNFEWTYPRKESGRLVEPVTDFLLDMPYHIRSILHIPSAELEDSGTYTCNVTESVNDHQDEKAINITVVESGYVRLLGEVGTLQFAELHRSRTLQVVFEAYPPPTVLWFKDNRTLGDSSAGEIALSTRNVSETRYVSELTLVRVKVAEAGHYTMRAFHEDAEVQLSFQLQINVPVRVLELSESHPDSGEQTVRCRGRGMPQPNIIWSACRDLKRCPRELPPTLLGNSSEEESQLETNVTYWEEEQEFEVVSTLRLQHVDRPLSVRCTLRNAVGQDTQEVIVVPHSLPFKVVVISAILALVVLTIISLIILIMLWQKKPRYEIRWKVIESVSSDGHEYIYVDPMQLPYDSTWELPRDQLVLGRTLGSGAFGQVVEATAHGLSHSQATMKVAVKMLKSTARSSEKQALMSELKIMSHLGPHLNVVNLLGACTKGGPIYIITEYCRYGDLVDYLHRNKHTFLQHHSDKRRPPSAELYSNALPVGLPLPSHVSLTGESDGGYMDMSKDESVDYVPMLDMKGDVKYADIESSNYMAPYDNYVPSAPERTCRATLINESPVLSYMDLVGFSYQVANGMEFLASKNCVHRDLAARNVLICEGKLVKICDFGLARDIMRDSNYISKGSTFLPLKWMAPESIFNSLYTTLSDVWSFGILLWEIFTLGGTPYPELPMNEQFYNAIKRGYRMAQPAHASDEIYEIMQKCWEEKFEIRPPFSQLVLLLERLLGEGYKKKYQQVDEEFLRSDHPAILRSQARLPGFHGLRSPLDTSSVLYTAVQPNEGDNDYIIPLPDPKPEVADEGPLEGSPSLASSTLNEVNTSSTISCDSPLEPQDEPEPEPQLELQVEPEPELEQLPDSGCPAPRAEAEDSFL

[6] = target: Mast/stem cell growth factor receptor Kit (Homo sapiens, UniProt P10721); experiment: Inhibition of Proto-oncogene tyrosine-kinase c-Kit
Sequence of Mast/stem cell growth factor receptor Kit (P10721 whole entry): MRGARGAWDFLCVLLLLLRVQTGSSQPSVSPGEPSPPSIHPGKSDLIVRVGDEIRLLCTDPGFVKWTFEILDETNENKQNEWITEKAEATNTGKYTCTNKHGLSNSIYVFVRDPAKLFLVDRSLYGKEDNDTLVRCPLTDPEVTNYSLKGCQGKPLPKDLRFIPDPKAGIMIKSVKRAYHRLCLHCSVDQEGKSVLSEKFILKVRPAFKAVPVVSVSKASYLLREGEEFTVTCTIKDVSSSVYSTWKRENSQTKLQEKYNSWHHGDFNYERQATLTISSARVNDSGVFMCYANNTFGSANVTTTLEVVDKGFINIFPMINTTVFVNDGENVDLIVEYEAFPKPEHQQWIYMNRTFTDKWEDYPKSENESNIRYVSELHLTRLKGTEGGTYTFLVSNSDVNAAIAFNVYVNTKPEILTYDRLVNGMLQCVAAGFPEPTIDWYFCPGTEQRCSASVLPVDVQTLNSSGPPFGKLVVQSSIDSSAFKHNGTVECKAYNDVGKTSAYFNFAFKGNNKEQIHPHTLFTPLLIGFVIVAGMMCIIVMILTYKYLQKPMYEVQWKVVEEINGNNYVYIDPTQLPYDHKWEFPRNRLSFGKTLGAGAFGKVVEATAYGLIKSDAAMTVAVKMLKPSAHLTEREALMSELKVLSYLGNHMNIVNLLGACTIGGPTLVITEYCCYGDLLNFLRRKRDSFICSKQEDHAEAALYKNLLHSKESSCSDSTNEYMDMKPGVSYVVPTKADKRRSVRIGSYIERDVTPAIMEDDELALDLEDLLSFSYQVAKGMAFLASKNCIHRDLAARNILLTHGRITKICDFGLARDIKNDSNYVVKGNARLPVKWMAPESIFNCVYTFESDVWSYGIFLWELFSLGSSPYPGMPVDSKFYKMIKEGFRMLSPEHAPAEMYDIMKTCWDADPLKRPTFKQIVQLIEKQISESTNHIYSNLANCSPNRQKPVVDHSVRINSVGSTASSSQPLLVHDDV

[7] = target: T1, Vascular endothelial growth factor receptor 2; details: CHO
Mus musculus = experiment: as §1; type: ADME, organism-based; set-up: dose 50 mg/Kg, route oral; details: in vivo, po

Sequence of Vascular endothelial growth factor receptor 1 (P17948 whole entry, the tested form may be a part): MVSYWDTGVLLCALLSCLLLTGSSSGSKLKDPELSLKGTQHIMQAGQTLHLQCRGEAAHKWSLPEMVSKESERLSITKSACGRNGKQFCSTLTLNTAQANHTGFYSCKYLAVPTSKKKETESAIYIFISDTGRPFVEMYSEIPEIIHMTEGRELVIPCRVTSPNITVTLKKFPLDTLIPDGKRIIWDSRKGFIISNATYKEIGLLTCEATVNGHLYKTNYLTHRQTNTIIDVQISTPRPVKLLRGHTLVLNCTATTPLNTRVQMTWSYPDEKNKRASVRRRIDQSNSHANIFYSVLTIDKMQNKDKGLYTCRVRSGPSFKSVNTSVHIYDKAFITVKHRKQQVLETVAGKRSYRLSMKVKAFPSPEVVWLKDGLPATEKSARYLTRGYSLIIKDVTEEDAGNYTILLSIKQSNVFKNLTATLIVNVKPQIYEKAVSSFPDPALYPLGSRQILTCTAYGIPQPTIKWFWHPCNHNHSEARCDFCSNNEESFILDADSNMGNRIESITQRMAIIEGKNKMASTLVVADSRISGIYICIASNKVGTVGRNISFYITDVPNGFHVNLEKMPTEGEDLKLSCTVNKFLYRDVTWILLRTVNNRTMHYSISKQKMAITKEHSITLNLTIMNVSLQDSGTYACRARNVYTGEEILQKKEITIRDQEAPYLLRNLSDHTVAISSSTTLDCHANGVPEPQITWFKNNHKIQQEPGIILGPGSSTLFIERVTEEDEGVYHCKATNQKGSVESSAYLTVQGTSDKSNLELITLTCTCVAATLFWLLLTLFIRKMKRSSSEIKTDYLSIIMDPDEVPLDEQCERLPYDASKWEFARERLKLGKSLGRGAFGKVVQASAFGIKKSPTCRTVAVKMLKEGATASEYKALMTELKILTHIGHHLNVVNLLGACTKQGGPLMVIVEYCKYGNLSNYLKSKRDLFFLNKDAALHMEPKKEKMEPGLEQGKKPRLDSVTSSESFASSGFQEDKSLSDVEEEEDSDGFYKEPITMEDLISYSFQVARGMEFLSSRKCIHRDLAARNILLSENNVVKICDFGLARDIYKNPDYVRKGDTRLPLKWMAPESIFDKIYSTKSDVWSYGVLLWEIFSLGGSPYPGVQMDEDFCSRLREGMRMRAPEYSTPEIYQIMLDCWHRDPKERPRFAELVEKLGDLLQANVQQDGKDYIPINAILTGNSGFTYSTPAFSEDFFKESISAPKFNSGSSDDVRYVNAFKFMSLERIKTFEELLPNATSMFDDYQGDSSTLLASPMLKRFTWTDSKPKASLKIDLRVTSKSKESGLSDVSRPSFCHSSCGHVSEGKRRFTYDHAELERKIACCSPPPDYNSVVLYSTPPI

Structure (SMILES) | IC50 [1] [nM] | IC50 [2] [nM] | Cmax [3] [µM] | Tmax [4] [min] | IC50 [5] [nM] | IC50 [6] [nM] | ED50 [7] [nM] | Cmax (Mus musculus) [µM]
Clc1ccc(Nc2nnc(Cc3ccncc3)c3c2CCCC3)cc1 | 3600 | > 10000 |  |  |  |  |  | 
Clc1ccc(Nc2nnc(Cc3cccnc3)c3ccccc23)cc1 | 9800 | > 10000 |  |  |  |  |  | 
Clc1ccc(Nc2nnc(Cc3ccncc3)c3cnccc23)cc1 | 230 | 610 |  |  |  |  |  | 
Clc1ccc(Nc2nnc(Cc3ccccn3)c3ccccc23)cc1 | > 10000 | > 10000 |  |  |  |  |  | 
Cc1cc(Cc2nnc(Nc3ccc(Cl)cc3)c3ccccc23)cc(C)n1 | > 10000 | > 10000 |  |  |  |  |  | 
Cc1cc(Cc2nnc(Nc3ccc(Cl)cc3)c3ccccc23)ccn1 |  | 240 |  |  |  |  |  | 
Oc1cccc(Nc2nnc(Cc3ccncc3)c3ccccc23)c1 |  |  | 0.5 | 30 | 4000 | 7900 |  | 
COc1cccc(Nc2nnc(Cc3ccncc3)c3ccccc23)c1 |  |  | 21 | 30 | 800 | 3000 |  | 
Clc1ccc(Nc2nnc(Cc3ccncn3)c3ccccc23)cc1 | 760 | 410 |  |  |  |  |  | 
Clc1ccc(Oc2nnc(Cc3ccncc3)c3ccccc23)cc1 | 60 | 1600 |  |  |  |  |  | 
Nc1ccc2c(Cc3ccncc3)nnc(Nc3ccc(Cl)cc3)c2c1 | 650 |  |  |  |  |  |  | 
Clc1ccc(Nc2nnc(Cc3ccncc3)c3ccccc23)cc1Cl | 70 | 30 | 9.8 | 30 | 600 | 700 | 27 | 
COc1cc(Nc2nnc(Cc3ccncc3)c3ccccc23)ccc1Cl | 260 |  | 8 | 30 | 2000 | 3500 |  | 
Cc1cc(C)cc(Nc2nnc(Cc3ccncc3)c3ccccc23)c1 | 150 | 40 | 10 | 30 | 800 | 2000 | 10 | 
FC(F)(F)c1cc(Br)cc(Nc2nnc(Cc3ccncc3)c3ccccc23)c1 | 600 | 380 | 6 | 120 | > 10000 | > 10000 | 39 | 
Clc1ccc(Sc2nnc(Cc3ccncc3)c3ccccc23)cc1 | 70 | 1300 |  |  |  |  |  | 

Structure (SMILES) | IC50 [1] [nM] | IC50 [2] [nM] | Cmax [3] [µM] | Tmax [4] [min] | IC50 [5] [nM] | IC50 [6] [nM] | ED50 [7] [nM] | Cmax (Mus musculus) [µM]
Cc1ccc2c(Cc3ccncc3)nnc(Nc3ccc(Cl)cc3)c2c1 | 3000 | 4700 |  |  |  |  |  | 
Cc1cccc(Nc2nnc(Cc3ccncc3)c3ccccc23)c1 | 40 | 80 | 13 | 30 | 1000 | 2500 | 8 | 
c1ccc(Nc2nnc(Cc3ccncc3)c3ccccc23)cc1 |  |  |  |  | 2800 | > 10000 |  | 
FC(F)(F)c1cc(Nc2nnc(Cc3ccncc3)c3ccccc23)ccc1Cl | 600 |  | 7.6 | 120 | 4000 | 2700 |  | 
Clc1ccc(Nc2nnc(NCc3ccncc3)c3ccccc23)cc1 | 2600 | 4700 |  |  |  |  |  | 
Clc1ccc(Nc2nnc(Cc3ccncc3)c3cccnc23)cc1 | 1700 |  |  |  |  |  |  | 
Clc1ccc(Nc2nnc(Cc3ccncc3)c3ncccc23)cc1 | 240 |  |  |  |  |  |  | 
Fc1cc(Nc2nnc(Cc3ccncc3)c3ccccc23)cc(C(F)(F)F)c1 | 350 | 200 |  |  | > 10000 | > 10000 | 40 | 
CN(c1ccc(Cl)cc1)c1nnc(Cc2ccncc2)c2ccccc12 | 2300 | 3500 |  |  |  |  |  | 
c1ccc(-c2ccc(Nc3nnc(Cc4ccncc4)c4ccccc34)cc2)cc1 |  |  |  |  | 1400 | 1400 |  | 
CC(c1ccncc1)c1nnc(Nc2ccc(Cl)cc2)c2ccccc12 (centres undefined) | 420 | 210 |  |  |  |  |  | 
Cc1cc(C)c(/C=C2\C(=O)Nc3ccccc32)[nH]1 [SEMAXANIB] |  |  |  | 30 |  |  | 930 | 0.3
Clc1ccc(Nc2nnc(Cc3ccncc3)c3ccccc23)cc1.O=C(O)CCC(=O)O |  |  | 32 | 15 |  |  |  | 
Clc1ccc(Nc2nnc(Cc3ccncc3)c3ccncc23)cc1 | 470 |  |  |  |  |  |  | 
Cc1c(Cc2ccncc2)nnc(Nc2ccc(Cl)cc2)c1C | 260 |  |  |  |  |  |  | 
CC(C)(C)c1ccc(Nc2nnc(Cc3ccncc3)c3ccccc23)cc1 |  |  | 25.6 | 30 | 2000 | 1000 |  | 
